US10172843B2, “Piperidine derivatives” (Hoffmann-La Roche Inc., priority 2014, dated 2019)

What follows are compounds tested against human Cat S (Homo sapiens (Human), UniProt P25774) (assay: Cathepsin enzyme inhibition assay (fluorogenic peptide substrate)). Conditions: human Cat S, enzyme 1 nM, substrate Z-Val-Val-Arg-AMC, pH 6.5; read-out: CatS IC50.
Sequence of human Cat S (P25774 115-331): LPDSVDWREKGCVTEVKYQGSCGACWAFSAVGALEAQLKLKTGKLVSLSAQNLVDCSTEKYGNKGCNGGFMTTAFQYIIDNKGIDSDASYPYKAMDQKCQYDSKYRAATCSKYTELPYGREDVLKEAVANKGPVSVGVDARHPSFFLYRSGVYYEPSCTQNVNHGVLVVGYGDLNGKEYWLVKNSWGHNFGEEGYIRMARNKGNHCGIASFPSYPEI
Type: biochemical
Protocol: Cathepsin Enzyme Inhibition Assay
Enzyme activity is measured by observing the increase in fluorescence intensity caused by cleavage of a peptide substrate containing a fluorophore whose emission is quenched in the intact peptide.
Assay buffer: 100 mM potassium phosphate pH 6.5, EDTA-Na 5 mM, Triton X-100 0.001%, DTT 5 mM.
Enzymes (all at 1 nM): human and mouse Cathepsin S, Cat K, Cat B, Cat L.
Substrate ([…], except for Cat K which uses Z-Leu-Arg-AMC (both from Bachem).
Excitation 360 nm, Emission 465 nm.
Enzyme is added to the substance dilutions in 96-well microtitre plates and the reaction is started with substrate. […] IC50 are calculated by standard methods.
Inhibition of human Cat S, mouse Cat S, human Cat K, mouse Cat K, human Cat B, mouse Cat B, human Cat L and mouse Cat L have been measured separately.
Cc1[nH]c(-c2ccc(C(F)(F)F)c(Cl)c2)nc1CN1CCC(n2c(=O)n(C)c3ccccc32)CC1 [Example 39, 1-{1-[2-(3-Chloro-4-trifluoromethyl-phenyl)-5-methyl-1H-imidazol-4-ylmethyl]-piperidin-4-yl}-3-methyl-1,3-dihydro-benzoimidazol-2-one] gave an IC50 of 242 nM. Compound Cc1[nH]c(-c2ccc(C(F)(F)F)c(Cl)c2)nc1CN1CCC(N2Cc3ccccc3NC2=O)CC1 [Example 40, 3-{1-[2-(3-Chloro-4-trifluoromethyl-phenyl)-5-methyl-1H-imidazol-4-ylmethyl]-piperidin-4-yl}-3,4-dihydro-1H-quinazolin-2-one] has an IC50 of 77 nM. Work on Cc1[nH]c(-c2ccc(Cl)c(Cl)c2)nc1CN1CCC(N2Cc3ccccc3NC2=O)CC1 [Example 42, 3-{1-[2-(3,4-Dichloro-phenyl)-5-methyl-1H-imidazol-4-ylmethyl]-piperidin-4-yl}-3,4-dihydro-1H-quinazolin-2-one] yielded an IC50 of 287 nM. Work on Cc1[nH]c(-c2ccc(C(F)(F)F)c(F)c2)nc1CN1CCC(n2c(=O)n(C)c3ccccc32)CC1 [Example 44, 1-{1-[2-(3-Fluoro-4-trifluoromethyl-phenyl)-5-methyl-1H-imidazol-4-ylmethyl]-piperidin-4-yl}-3-methyl-1,3-dihydro-benzoimidazol-2-one] yielded an IC50 of 385 nM. Compound Cc1[nH]c(-c2ccc(C(F)(F)F)c(Cl)c2)nc1CN1CCC(N2Cc3ccc(F)cc3NC2=O)CC1 [Example 45, 3-{1-[2-(3-Chloro-4-trifluoromethyl-phenyl)-5-methyl-1H-imidazol-4-ylmethyl]-piperidin-4-yl}-7-fluoro-3,4-dihydro-1H-quinazolin-2-one] has an IC50 of 110 nM. Cc1[nH]c(-c2ccc(C(F)(F)F)c(Cl)c2)nc1CN1CCC(c2c[nH]c3ncccc23)CC1 [Example 46, 3-{1-[2-(3-Chloro-4-trifluoromethyl-phenyl)-5-methyl-1H-imidazol-4-ylmethyl]-piperidin-4-yl}-1H-pyrrolo[2,3-b]pyridine] gave an IC50 of 305 nM. Compound Cc1[nH]c(-c2ccc(C(F)(F)F)c(F)c2)nc1CN1CCC(N2Cc3ccccc3NC2=O)CC1 [Example 47, 3-{1-[2-(3-Fluoro-4-trifluoromethyl-phenyl)-5-methyl-1H-imidazol-4-ylmethyl]-piperidin-4-yl}-3,4-dihydro-1H-quinazolin-2-one] has an IC50 of 145 nM. For Cc1[nH]c(-c2ccc(Cl)c(Cl)c2)nc1CN1CCC(N2Cc3ccc(F)cc3NC2=O)CC1 [Example 48, 3-{1-[2-(3,4-Dichloro-phenyl)-5-methyl-1H-imidazol-4-ylmethyl]-piperidin-4-yl}-7-fluoro-3,4-dihydro-1H-quinazolin-2-one], the IC50 was 450 nM. Compound Cc1[nH]c(-c2ccc(Cl)c(Cl)c2)nc1CN1CCC(c2c[nH]c3ncccc23)CC1 [Example 49, 3-{1-[2-(3,4-Dichloro-phenyl)-5-methyl-1H-imidazol-4-ylmethyl]-piperidin-4-yl}-1H-pyrrolo[2,3-b]pyridine] has an IC50 of 1200 nM. Cc1[nH]c(-c2ccc(Cl)c(F)c2)nc1CN1CCC(N2Cc3ccccc3NC2=O)CC1 [Example 50, 3-{1-[2-(4-Chloro-3-fluoro-phenyl)-5-methyl-1H-imidazol-4-ylmethyl]-piperidin-4-yl}-3,4-dihydro-1H-quinazolin-2-one] gave an IC50 of 605 nM. Cc1nn(-c2ccc(C(F)(F)F)cc2)cc1CN1CCC(N2Cc3ccccc3NC2=O)CC1 [Example 52, 3-{1-[3-Methyl-1-(4-trifluoromethyl-phenyl)-1H-pyrazol-4-ylmethyl]-piperidin-4-yl}-3,4-dihydro-1H-quinazolin-2-one] showed an IC50 of 1380 nM. For Cc1[nH]c(-c2ccc(C(F)(F)F)cc2)nc1CN1CCC(N2Cc3ccccc3N(C)C2=O)CC1 [Example 53, 1-Methyl-3-{1-[5-methyl-2-(4-trifluoromethyl-phenyl)-1H-imidazol-4-ylmethyl]-piperidin-4-yl}-3,4-dihydro-1H-quinazolin-2-one], the IC50 was 145 nM. Compound COCCN1C(=O)N(C2CCN(Cc3nc(-c4ccc(C(F)(F)F)cc4)[nH]c3C)CC2)Cc2ccccc21 [Example 54, 1-(2-Methoxy-ethyl)-3-{1-[5-methyl-2-(4-trifluoromethyl-phenyl)-1H-imidazol-4-ylmethyl]-piperidin-4-yl}-3,4-dihydro-1H-quinazolin-2-one] has an IC50 of 135 nM. For COCCc1[nH]c(-c2ccc(C(F)(F)F)cc2)nc1CN1CCC(N2Cc3ccccc3NC2=O)CC1 [Example 55, 3-{1-[5-(2-Methoxy-ethyl)-2-(4-trifluoromethyl-phenyl)-1H-imidazol-4-ylmethyl]-piperidin-4-yl}-3,4-dihydro-1H-quinazolin-2-one], the IC50 was 350 nM. Work on O=C1Nc2ccccc2CN1C1CCN(Cc2nc(-c3ccc(C(F)(F)F)cc3)[nH]c2Cc2ccccc2)CC1 [Example 56, 3-{1-[5-Benzyl-2-(4-trifluoromethyl-phenyl)-1H-imidazol-4-ylmethyl]-piperidin-4-yl}-3,4-dihydro-1H-quinazolin-2-one] yielded an IC50 of 225 nM. Compound Cc1[nH]c(-c2ccc(Cl)cc2Cl)nc1CN1CCC(N2Cc3ccccc3NC2=O)CC1 [Example 57, 3-{1-[2-(2,4-Dichloro-phenyl)-5-methyl-1H-imidazol-4-ylmethyl]-piperidin-4-yl}-3,4-dihydro-1H-quinazolin-2-one] has an IC50 of 995 nM. For Cc1[nH]c(-c2ccc(C(F)(F)F)cc2Cl)nc1CN1CCC(N2Cc3ccccc3NC2=O)CC1 [Example 59, 3-{1-[2-(2-Chloro-4-trifluoromethyl-phenyl)-5-methyl-1H-imidazol-4-ylmethyl]-piperidin-4-yl}-3,4-dihydro-1H-quinazolin-2-one], the IC50 was 285 nM. Compound Cc1[nH]c(-c2ccc(C(F)(F)F)cc2Cl)nc1CN1CCC(n2c(=O)n(C)c3ccccc32)CC1 [Example 60, 1-{1-[2-(2-Chloro-4-trifluoromethyl-phenyl)-5-methyl-1H-imidazol-4-ylmethyl]-piperidin-4-yl}-3-methyl-1,3-dihydro-benzoimidazol-2-one] has an IC50 of 915 nM. COCCc1[nH]c(-c2ccc(C(F)(F)F)cc2)nc1CN1CCC(c2c[nH]c3ccncc23)CC1 [Example 61, 3-{1-[5-(2-Methoxy-ethyl)-2-(4-trifluoromethyl-phenyl)-1H-imidazol-4-ylmethyl]-piperidin-4-yl}-1H-pyrrolo[3,2-c]pyridine] was tested, and the IC50 was 1940 nM. Work on CCCc1[nH]c(-c2ccc(C(F)(F)F)cc2)nc1CN1CCC(N2Cc3ccccc3NC2=O)CC1 [Example 62, 3-{1-[5-Propyl-2-(4-trifluoromethyl-phenyl)-1H-imidazol-4-ylmethyl]-piperidin-4-yl}-3,4-dihydro-1H-quinazolin-2-one] yielded an IC50 of 300 nM. With Cc1[nH]c(-c2ccc(C(F)(F)F)cc2)nc1CN1CCC(c2c[nH]c3ccncc23)CC1 [Example 63, 3-{1-[5-Methyl-2-(4-trifluoromethyl-phenyl)-1H-imidazol-4-ylmethyl]-piperidin-4-yl}-1H-pyrrolo[3,2-c]pyridine] the IC50 was 667 nM. For CCCc1[nH]c(-c2ccc(C(F)(F)F)cc2)nc1CN1CCC(n2c(=O)n(C)c3ccccc32)CC1 [Example 64, 1-Methyl-3-{1-[5-propyl-2-(4-trifluoromethyl-phenyl)-1H-imidazol-4-ylmethyl]-piperidin-4-yl}-1,3-dihydro-benzoimidazol-2-one], the IC50 was 928 nM. Cn1nc(CN2CCC(N3Cc4ccccc4NC3=O)CC2)nc1-c1ccc(C(F)(F)F)cc1 [Example 66, 3-{1-[1-Methyl-5-(4-trifluoromethyl-phenyl)-1H-[1,2,4]triazol-3-ylmethyl]-piperidin-4-yl}-3,4-dihydro-1H-quinazolin-2-one] gave an IC50 of 450 nM. For Cc1cn(-c2ccc(C(F)(F)F)cc2)nc1CN1CCC(N2Cc3ccccc3NC2=O)CC1 [Example 68, 3-{1-[4-Methyl-1-(4-trifluoromethyl-phenyl)-1H-pyrazol-3-ylmethyl]-piperidin-4-yl}-3,4-dihydro-1H-quinazolin-2-one], the IC50 was 650 nM. Compound Cc1c(CN2CCC(n3c(=O)n(C)c4ccccc43)CC2)nc(-c2ccc(C(F)(F)F)cc2)n1C [Example 70, 1-{1-[1,5-Dimethyl-2-(4-trifluoromethyl-phenyl)-1H-imidazol-4-ylmethyl]-piperidin-4-yl}-3-methyl-1,3-dihydro-benzoimidazol-2-one] has an IC50 of 245 nM. Cc1c(CN2CCC(N3Cc4ccccc4NC3=O)CC2)nc(-c2ccc(C(F)(F)F)cc2)n1C [Example 71, 3-{1-[1,5-Dimethyl-2-(4-trifluoromethyl-phenyl)-1H-imidazol-4-ylmethyl]-piperidin-4-yl}-3,4-dihydro-1H-quinazolin-2-one] was tested, and the IC50 was 84 nM. Work on Cc1[nH]c(-c2ccc(S(=O)(=O)C(F)(F)F)cc2)nc1CN1CCC(N2Cc3ccccc3NC2=O)CC1 [Example 72, 3-{1-[5-Methyl-2-(4-trifluoromethanesulfonyl-phenyl)-1H-imidazol-4-ylmethyl]-piperidin-4-yl}-3,4-dihydro-1H-quinazolin-2-one] yielded an IC50 of 24 nM. In the case of Cc1[nH]c(-c2ccc(S(C)(=O)=O)cc2)nc1CN1CCC(N2Cc3ccccc3NC2=O)CC1 [Example 74, 3-{1-[2-(4-Methanesulfonyl-phenyl)-5-methyl-1H-imidazol-4-ylmethyl]-piperidin-4-yl}-3,4-dihydro-1H-quinazolin-2-one], the IC50 is reported as 94 nM.

Same assay, conditions: read-out: CatS IC50
Work on Cc1[nH]c(-c2ccc(C(F)(F)F)cc2)nc1CN1CCC(N2C(=O)Cc3cc(Cl)ccc32)CC1 [Example 43, 5-Chloro-1-{1-[5-methyl-2-(4-trifluoromethyl-phenyl)-1H-imidazol-4-ylmethyl]-piperidin-4-yl}-1,3-dihydro-indol-2-one] yielded an IC50 of 445 nM.
